Experiments:
Dermal fibroblasts = test: Growth factor production by dermal fibroblasts cultured 48 hours with CBD; format: cell-based; conditions: various CBD concentrations, OPTI-MEM with 10% fetal calf serum
From the text: (§1) In the groupings of three bars, the middle bar at each concentration represents 100,000 fibroblasts co-cultured with CBD at the indicated concentration. The right bar at each concentration represents 200,000 fibroblasts co-cultured with CBD at the indicated concentration. The left bar at each concentration represents 0 fibroblasts co-cultured with CBD at the indicated concentration;
as §1, with “concentration.” for “concentration;”
Dermal fibroblasts were obtained from Allcells, Inc. and cultured for 48 hours in the indicated concentrations of CBD. […] Cultures were performed in OPTI-MEM media with 10% fetal calf serum.

[1] = system: in vitro formed nucleus pulposus tissues; conditions: TNF-alpha 1-5 ng/mL, within 48 hours; cited from earlier work
[2] = system: CGRP expression in dorsal root ganglion (DRG) neurons innervating intervertebral discs; conditions: cited from earlier work

C=C(C)C1CCC(C)=CC1c1c(O)cc(CCCCC)cc1O (centres unmarked) [CBD, 2-[3-methyl-6-(1-methylethenyl)-2-cyclohexen-1-yl]-5-pentyl-1,3-benzenediol]
IGF-1 production from fibroblasts (Dermal fibroblasts; FIG. 1): augmentation of IGF-1 was observed | EGF-1 production from fibroblasts (Dermal fibroblasts; FIG. 2): augmentation of EGF-1 was observed

TNF-alpha
proteoglycan content of NP tissue relative to original [1]: 25%

etanercept
CGRP expression in DRG neurons innervating injured discs ([2]; direct intradiscal application immediately after disc puncture, rats): suppressed CGRP expression | proportion of CGRP-immunoreactive neurons among FluoroGold-labeled neurons ([2]; rat L4/5 disc puncture, direct intradiscal application, sham 21%±4%, puncture+saline 32%±7%): 23%±4%
